Laboratory results: patent publication EP0326331B1, “Substituted quinolines and cinnolines” (Dow AgroSciences LLC, priority 1988, dated 1989)

Experiments:
Assay type in all cases: in vivo
[1] = test system: Erysiphe graminis tritici (powdery mildew); assay: Test 1 greenhouse foliar spray screen, powdery mildew on wheat; conditions: Blumeria graminis, foliar, Test 1, foliar spray on wheat; disease control rating at 400 ppm / 100 ppm; read-out: POWD MDEW
[2] = test system: Pyricularia oryzae (rice blast); assay: whole plant or invertebrate; conditions: Pyricularia oryzae, foliar, read-out: RICE BLAST, Test 1, foliar spray on rice; disease control rating at 400 ppm / 100 ppm
[3] = test system: Puccinia recondita tritici (leaf rust); assay: Test 1 greenhouse foliar spray screen, leaf rust on wheat; conditions: Puccinia recondita, foliar, Test 1, foliar spray on wheat; disease control rating at 400 ppm / 100 ppm
[4] = test system: Botrytis cinerea (gray mold); assay: Test 1 greenhouse foliar spray screen, gray mold on grape berries; conditions: Botrytis cinerea, foliar; Test 1, spray on grape berries; disease control rating at 400 ppm / 100 ppm
[5] = test system: Pseudoperonospora cubensis (downy mildew); assay: Test 1 greenhouse foliar spray screen, downy mildew on squash; conditions: Pseudoperonospora cubensis, foliar, Test 1, foliar spray on squash; disease control rating at 400 ppm / 100 ppm; read-out: DOWN MDEW
[6] = test system: southern armyworm (Spodopetra eridania Cramer); assay: Mite/insect screen, SAW; conditions: Spodoptera eridania, foliar, percent mortality, foliar spray on squash, read-out: SAW RESULTS %; for mortality at 200 ppm: rate 200 ppm; for mortality at 400 ppm: rate 400 ppm
Summary of the method: (§1)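 Foliar spray to runoff (10 psi), 1 h drying; aqueous dilutions from acetone/alcohol emulsifier stock. Mortality (%) after standard exposure.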

[7] = test system: Twospotted spider mites (Tetranychus urticae Koch); assay: Mite/insect screen, SM; conditions: Tetranychus urticae, foliar, percent mortality, foliar spray on squash, read-out: SM RESULTS %; for mortality at 400 ppm: rate 400 ppm; for mortality at 200 ppm: rate 200 ppm
Summary of the method: as §1

[8] = test system: melon aphids (Aphis gossypii Glover); assay: Mite/insect screen, MA; conditions: Aphis gossypii, foliar, percent mortality, foliar spray on squash, read-out: MA RESULTS %; for mortality at 200 ppm: rate 200 ppm; for mortality at 400 ppm: rate 400 ppm
Summary of the method: as §1

corn rootworm = assay: Mite/insect screen, CRW; conditions: percent mortality, read-out: CRW RESULTS %; for mortality at 12 ppm: CRW rate 12.00 ppm; for mortality at 24 ppm: CRW rate 24.00 ppm
Summary of the method: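 Following dissolution in equal parts acetone and alcohol with 23 g/L and 13 g/L emulsifier blends and dilution with water, test solutions were scored for percent mortality at the end of standard exposures.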

SMILES	pest or weed control at 400 ppm [1] [%]	pest or weed control at 400 ppm [2] [%]	pest or weed control at 400 ppm [3] [%]	pest or weed control at 400 ppm [4] [%]	pest or weed control at 400 ppm [5] [%]	mortality at 200 ppm [6] [%]	mortality at 400 ppm [6] [%]	mortality at 400 ppm [7] [%]	mortality at 200 ppm [8] [%]	mortality at 400 ppm [8] [%]	mortality at 12 ppm (corn rootworm) [%]	mortality at 24 ppm (corn rootworm) [%]	mortality at 200 ppm [7] [%]
Fc1cccc2c(OCCc3ccccc3Cl)ccnc12 [Example 269, 4-[2-(2-chlorophenyl)ethoxy]-8-fluoroquinoline]	90 to 100	90 to 100	90 to 100	0 to 19	90 to 100	0	0	0	30	0	0	40	–
CCC(COc1ccnc2c(F)cccc12)c1ccc(-c2ccccc2)cc1 (centres unmarked) [Example 270, 4-[2-[1,1'-biphenyl]-4-ylbutoxy]-8-fluoroquinoline]	0 to 19	20 to 89	0 to 19	0 to 19	0 to 19	20	0	80	0	0	0	0	0
CC(C)(C)c1ccc(CCCNc2ccnc3c(F)cccc23)cc1 [Example 271, N-[3-[4-(t-butyl)phenyl]propyl]-8-fluoro-4-quinolinamine]	0 to 19	90 to 100	20 to 89	0 to 19	90 to 100	0	0	0	0	0	0	0	0
Fc1cccc2c(OCCCCOc3ccccc3)ccnc12 [Example 272, 8-fluoro-4-(4-phenoxybutoxy)quinoline]	0 to 19	20 to 89	0 to 19	0 to 19	20 to 89	0	0	20	0	0	0	0	0
CC(=O)Oc1ccc(CCN(C(C)=O)c2ccnc3c(F)cccc23)cc1 [Example 273, N-[2-(4-acetoxyphenyl)ethyl]-N-(8-fluoro-4-quinolinyl)acetamide]	20 to 89	90 to 100	20 to 89	0 to 19	20 to 89	–	0	0	–	0	–	0	–
CC(CCOc1ccnc2c(F)cccc12)CC(C)(C)C (centres unmarked) [Example 274, 8-fluoro-4-(3,5,5-trimethylhexyloxy)quinoline]	90 to 100	90 to 100	90 to 100	0 to 19	20 to 89	0	0	0	100	100	0	0	100
Fc1ccc(CCOc2ccnc3c(F)cccc23)c(F)c1 [Example 275, 8-fluoro-4-[2-(2,4-difluorophenyl)ethoxy]quinoline]	90 to 100	90 to 100	90 to 100	0 to 19	90 to 100	0	0	60	90	100	0	0	0
